Measurements reported in ChEMBL document CHEMBL5723587, “Data for DCP probe BI-113823” (2024).

Tests used:
[1] = molecular target: D(1A) dopamine receptor (Homo sapiens) (UniProt P21728); experiment: D1 Eurofins-Cerep binding assay; set-up: ligand concentration 0.3 nM; conditions: Compound concentration 10.0 uM
[2] = molecular target: Histamine H2 receptor (Homo sapiens) (UniProt P25021); experiment: H2 Eurofins-Cerep binding assay; set-up: ligand concentration 0.075 nM; conditions: Compound concentration 10.0 uM
[3] = molecular target: D(2) dopamine receptor (Homo sapiens) (UniProt P14416); experiment: Agonist activity in the Eurofins Cerep SafetyScreen44 (BI) against D2SH_AGON by Scintillation counting (Cerep_1322); conditions: Compound concentration 10.0 uM
Sequence of D(2) dopamine receptor (Homo sapiens) (P14416 whole entry): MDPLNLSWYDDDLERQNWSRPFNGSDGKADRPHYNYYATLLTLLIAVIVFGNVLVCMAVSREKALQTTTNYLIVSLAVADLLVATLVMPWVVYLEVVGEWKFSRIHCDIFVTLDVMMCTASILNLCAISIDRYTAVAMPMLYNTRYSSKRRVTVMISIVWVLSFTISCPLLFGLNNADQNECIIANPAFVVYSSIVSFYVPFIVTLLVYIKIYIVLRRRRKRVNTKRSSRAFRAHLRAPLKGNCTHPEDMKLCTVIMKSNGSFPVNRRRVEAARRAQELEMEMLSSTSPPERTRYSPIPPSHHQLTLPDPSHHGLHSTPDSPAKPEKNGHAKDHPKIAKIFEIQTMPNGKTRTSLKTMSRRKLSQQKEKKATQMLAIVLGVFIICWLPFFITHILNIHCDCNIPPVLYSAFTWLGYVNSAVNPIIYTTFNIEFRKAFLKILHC

[4] = molecular target: Beta-1 adrenergic receptor (Homo sapiens) (UniProt P08588); experiment: beta 1 Eurofins-Cerep binding assay; set-up: ligand concentration 0.3 nM; conditions: Compound concentration 10.0 uM
[5] = molecular target: L-type calcium channel (dihydropyridine site), Cav1.2 alpha-1C (Rattus norvegicus, UniProt P22002); experiment: Inhibitor of CA+/DHPSI/R in the Eurofins Cerep SafetyScreen44 (BI) by Radioactive Assay (Cerep_161); format: protein assay; set-up: scale not given: the % may be the effect or the level left; conditions: rat brain, probe [3H](+)PN200-110, compound concentration 10 uM, read-out: % Ctrl
Homo sapiens = species on record: Homo sapiens; experiment: Agonist activity in the Eurofins Cerep SafetyScreen44 (BI) against N_NEURO_A4B2 by Radioligand Binding (Cerep_3029); format: protein-complex assay; conditions: Compound concentration 10.0 uM
[6] = molecular target: Delta-type opioid receptor (Homo sapiens) (UniProt P41143); experiment: delta (DOP) Eurofins-Cerep binding assay; set-up: ligand concentration 0.5 nM; conditions: Compound concentration 10.0 uM
[7] = molecular target: Sodium-dependent serotonin transporter (Homo sapiens) (UniProt P31645); experiment: 5-HT transporter Eurofins-Cerep binding assay; set-up: ligand concentration 2 nM; conditions: Compound concentration 10.0 uM
Sequence of Sodium-dependent serotonin transporter (Homo sapiens) (P31645 whole entry, looked up): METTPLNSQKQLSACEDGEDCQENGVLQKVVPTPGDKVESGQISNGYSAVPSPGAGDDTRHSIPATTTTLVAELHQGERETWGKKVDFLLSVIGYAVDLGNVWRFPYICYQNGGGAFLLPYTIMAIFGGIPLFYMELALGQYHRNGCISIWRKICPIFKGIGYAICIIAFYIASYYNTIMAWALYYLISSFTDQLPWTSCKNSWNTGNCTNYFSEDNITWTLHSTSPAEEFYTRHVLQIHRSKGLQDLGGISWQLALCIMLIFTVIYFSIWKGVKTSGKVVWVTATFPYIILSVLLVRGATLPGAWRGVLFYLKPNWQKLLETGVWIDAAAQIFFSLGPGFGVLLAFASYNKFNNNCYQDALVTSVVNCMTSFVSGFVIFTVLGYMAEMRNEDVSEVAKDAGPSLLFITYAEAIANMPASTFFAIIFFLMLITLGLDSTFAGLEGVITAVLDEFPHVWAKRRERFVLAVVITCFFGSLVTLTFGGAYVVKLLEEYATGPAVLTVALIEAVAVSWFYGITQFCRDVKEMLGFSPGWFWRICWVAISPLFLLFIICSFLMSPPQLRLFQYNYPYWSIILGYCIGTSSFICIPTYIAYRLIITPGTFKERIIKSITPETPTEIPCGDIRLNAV

[8] = molecular target: cGMP-inhibited 3',5'-cyclic phosphodiesterase 3A (Homo sapiens) (UniProt Q14432); experiment: Inhibitor of PDE3A in the Eurofins Cerep SafetyScreen44 (BI) by HTRF-homogeneous time resolved fluoresce (Cerep_4072); conditions: Compound concentration 10.0 uM
[9] = molecular target: Alpha-2A adrenergic receptor (Homo sapiens) (UniProt P08913); experiment: Inhibitor of ALPHA2A/HU in the Eurofins Cerep SafetyScreen44 (BI) by Radioactive Assay (Cerep_13); conditions: Compound concentration 10.0 uM
[10] = molecular target: 5-hydroxytryptamine receptor 2B (Homo sapiens) (UniProt P41595); experiment: 5-HT2B Eurofins-Cerep binding assay; conditions: Compound concentration 10.0 uM
[11] = molecular target: Glucocorticoid receptor (Homo sapiens) (UniProt P04150); experiment: GR Eurofins-Cerep binding assay; conditions: Compound concentration 10.0 uM
[12] = molecular target: Mu-type opioid receptor (Homo sapiens) (UniProt P35372); experiment: mu (MOP) Eurofins-Cerep binding assay; set-up: ligand concentration 0.5 nM; conditions: Compound concentration 10.0 uM
Sequence of Mu-type opioid receptor (Homo sapiens) (P35372 whole entry): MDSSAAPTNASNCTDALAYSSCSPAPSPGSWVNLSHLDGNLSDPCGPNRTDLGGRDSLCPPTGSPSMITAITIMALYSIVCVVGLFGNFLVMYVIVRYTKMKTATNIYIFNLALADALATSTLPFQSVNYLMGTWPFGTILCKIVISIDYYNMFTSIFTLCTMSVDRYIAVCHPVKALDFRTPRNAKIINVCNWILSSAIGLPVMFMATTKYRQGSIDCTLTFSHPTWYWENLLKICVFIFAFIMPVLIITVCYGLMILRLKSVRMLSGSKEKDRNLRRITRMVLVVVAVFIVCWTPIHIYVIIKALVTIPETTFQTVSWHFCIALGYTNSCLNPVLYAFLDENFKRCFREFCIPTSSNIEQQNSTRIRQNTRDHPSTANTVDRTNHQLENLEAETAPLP

[13] = molecular target: Sodium-dependent dopamine transporter (Homo sapiens) (UniProt Q01959); experiment: dopamine transporter Eurofins-Cerep binding assay; conditions: Compound concentration 10.0 uM
[14] = molecular target: 3',5'-cyclic-AMP phosphodiesterase 4D (Homo sapiens) (UniProt Q08499); experiment: Inhibitor of PDE4D2 in the Eurofins Cerep SafetyScreen44 (BI) by Scintillation counting (Cerep_4077); conditions: Compound concentration 10.0 uM
hERG (KCNH2) = hERG (KCNH2) (Homo sapiens, UniProt Q12809); experiment: Inhibitor of HERG_DOFETILIDE in the Eurofins Cerep SafetyScreen44 (BI) by Scintillation counting (Cerep_4094); set-up: scale not given: the % may be the effect or the level left; conditions: probe [3H]dofetilide, compound concentration 10 uM, read-out: % Ctrl
[15] = molecular target: 5-hydroxytryptamine receptor 3A (Homo sapiens) (UniProt P46098); experiment: 5-HT3 Eurofins-Cerep binding assay; set-up: ligand concentration 0.5 nM; conditions: Compound concentration 10.0 uM
Sequence of 5-hydroxytryptamine receptor 3A (Homo sapiens) (P46098 whole entry): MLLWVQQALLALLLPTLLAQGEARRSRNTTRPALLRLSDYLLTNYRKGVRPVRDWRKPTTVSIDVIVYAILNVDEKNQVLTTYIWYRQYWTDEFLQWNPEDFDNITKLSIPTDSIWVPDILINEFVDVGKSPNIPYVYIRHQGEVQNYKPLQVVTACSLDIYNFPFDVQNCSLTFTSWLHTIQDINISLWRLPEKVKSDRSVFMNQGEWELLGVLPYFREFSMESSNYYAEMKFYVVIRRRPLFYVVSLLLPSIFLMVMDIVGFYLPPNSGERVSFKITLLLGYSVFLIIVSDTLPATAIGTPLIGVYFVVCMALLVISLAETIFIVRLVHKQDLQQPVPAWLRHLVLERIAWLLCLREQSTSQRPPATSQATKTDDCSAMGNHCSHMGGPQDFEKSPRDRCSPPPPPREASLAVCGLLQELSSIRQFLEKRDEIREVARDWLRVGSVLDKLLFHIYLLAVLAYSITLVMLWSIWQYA

[16] = molecular target: Cannabinoid receptor 2 (Homo sapiens) (UniProt P34972); experiment: Activity against CB2/PERIPH/H in the Eurofins Cerep SafetyScreen44 (BI) by Radioactive Assay (Cerep_37); conditions: Compound concentration 10.0 uM
[17] = molecular target: Vasopressin V1a receptor (Homo sapiens) (UniProt P37288); experiment: V1a Eurofins-Cerep binding assay; set-up: ligand concentration 0.3 nM; conditions: Compound concentration 10.0 uM
[18] = molecular target: Prostaglandin G/H synthase 2 (Homo sapiens) (UniProt P35354); experiment: Inhibitor of COX-2 in the Eurofins Cerep SafetyScreen44 (BI) by Fluorimetry (Cerep_4186); conditions: Compound concentration 10.0 uM
Rattus norvegicus [19] = species on record: Rattus norvegicus; experiment: KV channel Eurofins-Cerep binding assay; set-up: ligand concentration 0.01 nM; conditions: Compound concentration 10.0 uM
B1 bradykinin receptor [20] = molecular target: T1, B1 bradykinin receptor (Homo sapiens, UniProt P46663); experiment: Radioligand binding assay (displacement of kallidin, hBDKRB1 ) at 10 µM ( Non-specific binding is estimated in the presence of 10 µM Des-Arg9- (Leu8)-Bradykinin. Membranes are filtered and washed, the filters are then counted to determine [3H]Kallidin[des-Arg10, Leu9] specifically bound.); set-up: compound concentration 10 uM
T1 sequence (P46663 whole entry): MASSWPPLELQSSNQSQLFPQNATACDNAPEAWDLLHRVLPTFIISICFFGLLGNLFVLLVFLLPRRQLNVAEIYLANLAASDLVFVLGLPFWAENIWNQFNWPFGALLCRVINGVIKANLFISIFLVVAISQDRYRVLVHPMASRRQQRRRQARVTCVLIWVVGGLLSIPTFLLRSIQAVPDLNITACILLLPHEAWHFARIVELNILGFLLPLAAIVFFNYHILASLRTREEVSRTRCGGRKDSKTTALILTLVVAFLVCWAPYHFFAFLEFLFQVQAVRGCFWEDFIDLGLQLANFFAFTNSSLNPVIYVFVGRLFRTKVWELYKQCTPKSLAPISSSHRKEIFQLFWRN

[21] = molecular target: Angiotensin-converting enzyme (Homo sapiens) (UniProt P12821); experiment: Activity against ACE(HU_AMTCH400) in the Eurofins Cerep SafetyScreen44 (BI) by Photometry (Cerep_3441); conditions: Compound concentration 10.0 uM
[22] = molecular target: Sodium-dependent noradrenaline transporter (Homo sapiens) (UniProt P23975); experiment: norepinephrine transporter Eurofins-Cerep binding assay; set-up: ligand concentration 1 nM; conditions: Compound concentration 10.0 uM
Sequence of Sodium-dependent noradrenaline transporter (Homo sapiens) (P23975 whole entry): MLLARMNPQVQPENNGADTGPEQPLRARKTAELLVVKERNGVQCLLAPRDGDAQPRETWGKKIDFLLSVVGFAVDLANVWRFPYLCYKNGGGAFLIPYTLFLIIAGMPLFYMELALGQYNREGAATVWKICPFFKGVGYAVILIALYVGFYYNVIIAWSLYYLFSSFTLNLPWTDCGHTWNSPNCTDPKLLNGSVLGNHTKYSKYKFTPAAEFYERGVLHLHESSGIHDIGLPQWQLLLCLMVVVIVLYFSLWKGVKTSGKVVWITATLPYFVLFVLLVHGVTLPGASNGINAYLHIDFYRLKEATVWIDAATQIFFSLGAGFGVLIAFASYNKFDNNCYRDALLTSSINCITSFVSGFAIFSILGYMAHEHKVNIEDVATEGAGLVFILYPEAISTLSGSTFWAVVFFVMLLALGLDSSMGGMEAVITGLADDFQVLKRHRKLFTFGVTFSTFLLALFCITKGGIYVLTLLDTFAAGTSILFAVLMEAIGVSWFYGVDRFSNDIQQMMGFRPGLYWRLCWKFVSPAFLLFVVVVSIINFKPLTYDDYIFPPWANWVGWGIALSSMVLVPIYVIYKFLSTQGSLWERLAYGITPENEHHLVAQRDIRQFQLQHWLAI

[23] = molecular target: Glutamate NMDA receptor (Rattus norvegicus) (UniProt P35439+Q00959+Q00960+Q00961+Q62645+Q8VHN2+Q9R1M7); experiment: Inhibitor of NMDA/R in the Eurofins Cerep SafetyScreen44 (BI) by Radioactive Assay (Cerep_66); format: protein-complex assay; conditions: Compound concentration 10.0 uM
[24] = molecular target: MAO-A (amine oxidase [flavin-containing] A) (Homo sapiens, UniProt P21397); experiment: Agonist activity in the Eurofins Cerep SafetyScreen44 (BI) against MAO-A_ANTAG by Scintillation counting (Cerep_443); set-up: scale not given: the % may be the effect or the level left; conditions: rat; compound concentration 10 uM; target entry is the homologue from another species; read-out: % Ctrl
Sequence of MAO-A (amine oxidase [flavin-containing] A) (P21397 whole entry): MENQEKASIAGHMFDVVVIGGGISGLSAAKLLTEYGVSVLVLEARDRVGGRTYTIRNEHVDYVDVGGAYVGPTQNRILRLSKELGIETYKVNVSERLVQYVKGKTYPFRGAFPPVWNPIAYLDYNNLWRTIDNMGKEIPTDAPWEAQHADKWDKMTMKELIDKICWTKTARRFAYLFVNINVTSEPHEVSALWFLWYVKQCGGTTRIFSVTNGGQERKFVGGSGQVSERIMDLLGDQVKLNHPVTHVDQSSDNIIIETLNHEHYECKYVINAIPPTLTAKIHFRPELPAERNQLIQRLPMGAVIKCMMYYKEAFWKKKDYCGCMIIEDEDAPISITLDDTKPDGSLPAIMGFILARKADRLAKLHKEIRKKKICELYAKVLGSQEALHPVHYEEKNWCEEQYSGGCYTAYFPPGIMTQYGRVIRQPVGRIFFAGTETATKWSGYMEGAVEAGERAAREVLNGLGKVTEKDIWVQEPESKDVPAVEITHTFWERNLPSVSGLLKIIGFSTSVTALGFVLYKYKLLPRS

[25] = molecular target: Androgen receptor (Homo sapiens) (UniProt P10275); conditions: Compound concentration 10.0 uM
Description: Activity against ANDROGEN/H in the Eurofins Cerep SafetyScreen44 (BI) by Radioactive Assay (Cerep_933)

[26] = molecular target: 5-hydroxytryptamine receptor 2A (Homo sapiens) (UniProt P28223); experiment: Agonist activity in the Eurofins Cerep SafetyScreen44 (BI) against 5HT2AH_AGON by Scintillation counting (Cerep_471); conditions: Compound concentration 10.0 uM
Rattus norvegicus [27] = species on record: Rattus norvegicus; experiment: Activity against BZD/CENTR/R in the Eurofins Cerep SafetyScreen44 (BI) by Radioactive Assay (Cerep_28); format: protein-complex assay; conditions: Compound concentration 10.0 uM
[28] = molecular target: Prostaglandin G/H synthase 1 (Homo sapiens) (UniProt P23219); experiment: Inhibitor of COX-1 in the Eurofins Cerep SafetyScreen44 (BI) by Fluorimetry (Cerep_4173); conditions: Compound concentration 10.0 uM
[29] = molecular target: Muscarinic acetylcholine receptor M3 (Homo sapiens) (UniProt P20309); experiment: M3 Eurofins-Cerep binding assay; set-up: ligand concentration 0.2 nM; conditions: Compound concentration 10.0 uM
[30] = molecular target: Histamine H1 receptor (Homo sapiens) (UniProt P35367); experiment: H1 Eurofins-Cerep binding assay; set-up: ligand concentration 1 nM; conditions: Compound concentration 10.0 uM
[31] = molecular target: 5-hydroxytryptamine receptor 1B (Homo sapiens) (UniProt P28222); experiment: 5-HT1B Eurofins-Cerep binding assay; set-up: ligand concentration 1 nM; conditions: Compound concentration 10.0 uM
B1 bradykinin receptor [32] = molecular target: T1, B1 bradykinin receptor; experiment: Measurement of intracellular calcium in HEK-cells expressing hBDKRB1 at up to 1 µM ( The compound antagonizes the effects of the specific B1 agonist [Lys-des-Arg9 ]-Bradykinin (10 nM) in a concentration-dependent manner.); format: functional, cell-based; set-up: compound concentration < 1 uM
[33] = molecular target: Muscarinic acetylcholine receptor M2 (Homo sapiens) (UniProt P08172); experiment: M2 Eurofins-Cerep binding assay; set-up: ligand concentration 2 nM; conditions: Compound concentration 10.0 uM
[34] = molecular target: Muscarinic acetylcholine receptor M1 (Homo sapiens) (UniProt P11229); experiment: M1 Eurofins-Cerep binding assay; set-up: ligand concentration 2 nM; conditions: Compound concentration 10.0 uM
[35] = molecular target: Alpha-1A adrenergic receptor (Homo sapiens) (UniProt P35348); experiment: Agonist activity in the Eurofins Cerep SafetyScreen44 (BI) against ALPHA1AH_ANTAG by Scintillation counting (Cerep_2338); conditions: Compound concentration 10.0 uM
Sequence of Alpha-1A adrenergic receptor (Homo sapiens) (P35348 whole entry): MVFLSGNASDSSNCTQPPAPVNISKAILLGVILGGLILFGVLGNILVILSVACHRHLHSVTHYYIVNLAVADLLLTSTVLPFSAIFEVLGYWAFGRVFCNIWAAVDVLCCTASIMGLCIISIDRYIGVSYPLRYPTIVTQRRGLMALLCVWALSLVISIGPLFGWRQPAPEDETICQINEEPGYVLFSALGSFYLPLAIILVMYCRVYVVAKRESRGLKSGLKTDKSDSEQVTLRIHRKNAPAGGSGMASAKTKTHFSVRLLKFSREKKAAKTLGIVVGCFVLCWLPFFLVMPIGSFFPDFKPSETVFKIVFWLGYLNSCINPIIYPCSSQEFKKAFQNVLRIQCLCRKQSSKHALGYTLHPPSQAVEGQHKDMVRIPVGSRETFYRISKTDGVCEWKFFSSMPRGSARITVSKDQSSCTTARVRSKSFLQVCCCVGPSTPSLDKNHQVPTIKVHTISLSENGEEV

[36] = molecular target: Kappa-type opioid receptor (Homo sapiens) (UniProt P41145); experiment: kappa (KOP) Eurofins-Cerep binding assay; conditions: Compound concentration 10.0 uM
Sequence of Kappa-type opioid receptor (Homo sapiens) (P41145 whole entry): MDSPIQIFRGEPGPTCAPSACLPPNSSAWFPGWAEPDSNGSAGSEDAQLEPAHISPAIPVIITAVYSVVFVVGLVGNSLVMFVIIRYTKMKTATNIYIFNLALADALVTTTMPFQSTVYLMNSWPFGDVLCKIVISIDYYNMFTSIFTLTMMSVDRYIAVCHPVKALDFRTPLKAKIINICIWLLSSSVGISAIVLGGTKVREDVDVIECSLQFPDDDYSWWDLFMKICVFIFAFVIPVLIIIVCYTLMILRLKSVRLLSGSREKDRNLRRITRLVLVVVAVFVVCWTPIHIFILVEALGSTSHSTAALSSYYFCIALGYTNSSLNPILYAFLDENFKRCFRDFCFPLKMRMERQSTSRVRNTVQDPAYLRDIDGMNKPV

[37] = molecular target: Cannabinoid receptor 1 (Homo sapiens) (UniProt P21554); experiment: CB1 Eurofins-Cerep binding assay; conditions: Compound concentration 10.0 uM
[38] = molecular target: 5-hydroxytryptamine receptor 1A (Homo sapiens) (UniProt P08908); experiment: 5-HT1A Eurofins-Cerep binding assay; set-up: ligand concentration 0.5 nM; conditions: Compound concentration 10.0 uM
Sequence of 5-hydroxytryptamine receptor 1A (Homo sapiens) (P08908 whole entry): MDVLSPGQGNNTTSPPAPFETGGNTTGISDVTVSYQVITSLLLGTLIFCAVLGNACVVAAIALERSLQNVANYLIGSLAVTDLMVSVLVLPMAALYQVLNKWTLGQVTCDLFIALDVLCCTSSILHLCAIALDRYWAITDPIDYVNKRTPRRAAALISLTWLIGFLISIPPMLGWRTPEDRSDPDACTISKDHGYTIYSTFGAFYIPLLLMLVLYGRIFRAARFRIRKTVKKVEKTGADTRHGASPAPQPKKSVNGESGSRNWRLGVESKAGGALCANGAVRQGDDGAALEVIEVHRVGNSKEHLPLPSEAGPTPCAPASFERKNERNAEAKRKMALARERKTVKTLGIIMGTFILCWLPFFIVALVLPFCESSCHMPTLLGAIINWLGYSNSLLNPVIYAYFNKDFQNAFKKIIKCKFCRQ

[39] = molecular target: Tyrosine-protein kinase Lck (Homo sapiens) (UniProt P06239); experiment: Inhibitor of LCK_CE in the Eurofins Cerep SafetyScreen44 (BI) by lanthanide chelation excitation (Cerep_2906); conditions: Compound concentration 10.0 uM
[40] = molecular target: Cholecystokinin receptor type A (Homo sapiens) (UniProt P32238); experiment: CCK1 (CCKA) Eurofins-Cerep binding assay; set-up: ligand concentration 0.08 nM; conditions: Compound concentration 10.0 uM
Sequence of Cholecystokinin receptor type A (Homo sapiens) (P32238 whole entry): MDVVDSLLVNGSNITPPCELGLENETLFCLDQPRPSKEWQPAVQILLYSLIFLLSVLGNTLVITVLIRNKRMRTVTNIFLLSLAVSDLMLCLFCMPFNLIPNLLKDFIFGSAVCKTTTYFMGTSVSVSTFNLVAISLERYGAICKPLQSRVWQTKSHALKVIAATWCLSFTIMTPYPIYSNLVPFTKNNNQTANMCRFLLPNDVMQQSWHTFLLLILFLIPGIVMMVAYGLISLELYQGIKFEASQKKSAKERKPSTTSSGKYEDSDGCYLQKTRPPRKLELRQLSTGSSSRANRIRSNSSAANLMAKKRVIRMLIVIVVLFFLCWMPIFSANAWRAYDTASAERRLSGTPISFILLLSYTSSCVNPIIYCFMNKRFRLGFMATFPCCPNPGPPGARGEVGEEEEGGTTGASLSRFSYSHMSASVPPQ

[41] = molecular target: Beta-2 adrenergic receptor (Homo sapiens) (UniProt P07550); experiment: beta 2 Eurofins-Cerep binding assay; conditions: Compound concentration 10.0 uM
[42] = molecular target: Adenosine receptor A2a (Homo sapiens) (UniProt P29274); experiment: A2A Eurofins-Cerep binding assay; set-up: ligand concentration 6 nM; conditions: Compound concentration 10.0 uM
[43] = molecular target: Endothelin-1 receptor (Homo sapiens) (UniProt P25101); experiment: ETA Eurofins-Cerep binding assay; set-up: ligand concentration 0.03 nM; conditions: Compound concentration 10.0 uM

- residual activity [1]: 94%
- residual activity [2]: 113%
- residual activity [4]: 97%
- residual activity [6]: 87%
- residual activity [7]: 103%
- residual activity [10]: 81%
- residual activity [11]: 102%
- residual activity [12]: 96%
- residual activity [13]: 98%
- residual activity [15]: 93%
- residual activity [17]: 87%
- residual activity (Rattus norvegicus [19]): 98%
- Ki (B1 bradykinin receptor [20]): 431 nM (not active)
- residual activity [22]: 93%
- residual activity [25]: 90%
- residual activity [29]: 92%
- residual activity [30]: 104%
- residual activity [31]: 92%
- IC50 (B1 bradykinin receptor [32]): 699 nM (not active)
- residual activity [33]: 67%
- residual activity [34]: 89%
- residual activity [36]: 42%
- residual activity [37]: 137%
- residual activity [38]: 99%
- residual activity [40]: 85%
- residual activity [41]: 101%
- residual activity [42]: 124%
- residual activity [43]: 109%
Compound: COc1cc(C)c(S(=O)(=O)N(C)CCC(=O)N[C@H]2CC[C@@H](N3CCC4CN(C)CC4C3)CC2)c(C)c1 (stereo not given in full)
- residual activity [3]: 97%
- activity at 10 µM [5]: 120% (not active)
- residual activity (Homo sapiens): 98%
- residual activity [8]: 105%
- residual activity [9]: 90%
- residual activity [14]: 104%
- activity at 10 µM (hERG (KCNH2)): 63% (not active)
- residual activity [16]: 106%
- residual activity [18]: 98%
- residual activity [21]: 97%
- residual activity [23]: 112%
- activity at 10 µM [24]: 106% (not active)
- residual activity [26]: 108%
- residual activity (Rattus norvegicus [27]): 105%
- residual activity [28]: 85%
- residual activity [35]: 91%
- residual activity [39]: 94%
